Experiment [1] concerns ICR mice. Put plainly: Forced swimming test in mice. Type of experiment: in vivo. Particulars: 3.5 mg/kg/d by gavage for two days; 1 h after administration; last 4 min. As for the experimental part:
Each group was administered by gavage at a dose of 0.2 ml/10 g weight, for two days, deionized water was administered to vehicle group.
In the second day, 1 h after the administration, the mice were placed separately into a water cylinder with 20 cm of height, 18 cm of diameter, 10 cm of depth, 23±2° C. of water temperature; observing each for 6 min, after 2 min of adaption, the immobility time over the last 4 min was recorded.
The data was expressed as x±s, analyzed by SPSS 13.0 statistical software by means of One-Way ANOVA test, the homogeneity of variance was tested by LSD and SNK test.

Experiment [2] has as its system rats with chronic stress induced depression model. Put plainly: Open-field test, chronic stress induced depression. Particulars: 3.5 mg/kg/day gavage for 21 days; 3 minutes. Type of experiment: in vivo, SD rats. As for the experimental part: The gavage was carried out along with the model establishment, once a day, for 21 days. […] Referring to the methods in the literature (Xu Jing, Li Xiaoqiu, Establishment and evaluation of the model of chronic stress induced depression, Chinese Journal of Behavioral Medical Science, 2003, 12(1): 14 16), the model was established (i.e., establishing animal model of anti-depression by means of CUMS): the foot electric shock (voltage: […] (5 minutes), drying at 45° C. (5 minutes), tail nipping (1 min), wet feeding (wet mat), reversed day and night (24 hours), fasting (24 hours), water deprivation (24 hours) were randomly scheduled within 21 days, one kind of stimulations was given for each day, except for the animals of vehicle group, the others were separately caged with free diet, at the room temperature of (24±1)° C., with the relative humidity of (60±10)%. The open-field device was of 40 cm in height, 80 cm in both length and width, without cap, the inner walls and the bottom of the device are black, and the bottom was divided into 25 squares with equal area. The numbers of squares that the animals pass through were designated as the score of horizontal movement, and the numbers of standing (with the forelegs above 1 cm away from the ground) were designated as the score of vertical movement. Each animal was measured for one time, 3 minutes for each measurement. All parameters to be tested were expressed as Mean±SD (X±s), and tested by means of analysis of variance (ANOVA) in SPSS 12.0 software (purchased from SPSS Inc., USA), p<0.05 means that there was a significant difference.

Experiment [3] shares this test system. Put plainly: Jump stair test, chronic stress induced depression. The conditions noted are these: 3.5 mg/kg/day gavage for 21 days, 5 minutes. The format is in vivo, SD rats. The procedure:
The gavage was carried out along with the model establishment, once a day, for 21 days. […] Referring to the methods in the literature (Xu Jing, Li Xiaoqiu, Establishment and evaluation of the model of chronic stress induced depression, Chinese Journal of Behavioral Medical Science, 2003, 12(1): 14 16), the model was established (i.e., establishing animal model of anti-depression by means of CUMS): the foot electric shock (voltage: […] (5 minutes), drying at 45° C. (5 minutes), tail nipping (1 min), wet feeding (wet mat), reversed day and night (24 hours), fasting (24 hours), water deprivation (24 hours) were randomly scheduled within 21 days, one kind of stimulations was given for each day, except for the animals of vehicle group, the others were separately caged with free diet, at the room temperature of (24±1)° C., with the relative humidity of (60±10)%. […] A wooden platform (height: 5 cm, diameter: 8 cm) was placed into the box at the left back corner. Animals were placed into the response box to adapt to the environment for 3 minutes, and then the box was immediately electrified with […] alternating current, the normal response of the animal which suffered from electric shock was to jump onto the platform in order to avoid such harmful stimulation. Most animals were likely to jump down to the copper railings again or for several times, and then quickly jump back to the platform after suffering from the electric shock, being trained like this for 5 minutes, the times that the rats suffered from the electric shock were designated as error times. The test was carried out again after 24 hours, rats were placed on the platform and the box was charged, timing and recording the error times for 5 minutes. All parameters to be tested were expressed as Mean±SD (X±s), and tested by means of analysis of variance (ANOVA) in SPSS 12.0 software (purchased from SPSS Inc., USA), p<0.05 means that there was a significant difference.

The subject of experiment [4] is serotonin in the brain of rat. As to the kind of experiment: Serotonin in the brain of rat with chronic stress (HPLC-ECD, prefrontal cortex). The format is in vivo, SD rats. Particulars: 3.5 mg/kg/d gavage for 21 days. As for the experimental part: After being fed without water for 24 hours, SD rats were administered with 1% aqueous sucrose, the consumption of aqueous sucrose was measured for 1 hour. The rats were randomly divided into six groups (n=12 for each group) according to the consumptions of aqueous sucrose, i.e. vehicle group, model group, positive control group of Fluoroxetine Hydrochloride (2.5 mg/kg/d), high-dose group (14 mg/kg/day), medium-dose group (7 mg/kg/day), and low-dose group (3.5 mg/kg/day) of Albiflorin. The gavage was carried out along with the model establishment, once a day, for 21 days. Each group was administered at a dose of 1.0 ml/100 g weight, and weighed once a week.
The rats were fed at 6/cage as vehicle group, with normal diets and drinking water, and without any stimulation.
The rats were fed at 1/cage as the other five groups, and subjected to unpredicted stress stimulations for 21 days, including: swimming in ice water, drying, tail nipping, wet feeding, reversed day and night, fasting, water deprivation and the like. One kind of stimulations was randomly given for each day.
The animal was executed by decapitation, the brain of it was quickly stripped on the ice, the prefrontal cortex was taken out, then placed into frozen tissue tube after weighting, rapidly frozen with liquid nitrogen, and placed into the refrigerator at −70° C. until test.

Turning to `C[C@]12C[C@@H](O)[C@@H]3C[C@@]1(O[C@@H]1O[C@H](CO)[C@@H](O)[C@H](O)[C@H]1O)[C@@]3(COC(=O)c1ccccc1)C(=O)O2` [Albiflorin], the “Immobility Time” value in experiment [1] is reported as 44.85 ± 29.695 s. In addition, in experiment [2], the “Score of horizontal movement” value stood at 21.42 ± 20.38 and the “Score of vertical movement” value stood at 4.67 ± 6.87. For the same compound, the “Error times in training period” value in experiment [3] turned out to be 2.25 ± 1.42. Further, in experiment [3] (after 24 hours), the “Error times in testing period” value was 2.08 ± 1.31. The compound also registered a 5-HT in experiment [4] of 188.43 ± 67.91.
